Legend:
Assay type in all cases: cell-based
[1] = test system: Jurkat (JM) cells; assay: Annexin V apoptosis assay (AlexaFluor 488-Annexin V, PI) with the claimed apparatus; settings: 3 μM Camptothecin, three hours incubation
Method: Here the claimed apparatus is used in assay fluorescently labeled Annexin V to stain apoptotic and necrotic cells and PI to distinguish between the early and late apoptotic/necrotic cells. Jurkat (JM) cells were cultivated at 37° C. in a humidified air atmosphere with 5% CO2 in RPMI (Invitrogen, Cat. No. 61870) supplemented with 10% heat-inactivated fetal bovine serum (Invitrogen, Cat. No. 10108-165). 3 μM Camptothecin (Sigma, Cat. No. C-9911) was added to the cells in order to induce apoptosis. After three hours incubation (37° C., 5% CO2) cells were harvested in cold phosphate-buffered saline (PBS) and stained with AlexaFluor 488-labelled Annexin V from the Vybrant® Apoptosis Assay Kit #2 (Molecular probes, V13241) according to the manufacturer's protocol. The stained cells were loaded into a cassette containing propidium iodide. The cassette was placed in the claimed apparatus and the cells were counted and investigated using the claimed apparatus and in-house developed software. The cells were also investigated using an Olympus IX50 fluorescent microscope. Images were captured using a Lumenera CCD camera and in-house developed software. AF488 fluorescence was detected using a U-MWIBA3 (blue bandpass) filter cube (Olympus) and PI fluorescence was detected using a U-MWG2 (green longpass) filter cube (Olympus).

[2] = test system: Jurkat cells; assay: Early apoptosis by mitochondrial membrane potential (JC-1 and DAPI staining); settings: 10 μM campthotecin, 5 hours at 37° C.
From the text: Loss of the mitochondrial membrane potential is known to precede apoptosis and chemical-hypoxia-induced necrosis. The lipophilic cationic dye JC-1 (5,5,6,6-tetrachloro-1,1,3,3-tetraethylbenzimidazol-carbocyanine iodide) display potential-dependent accumulation in the mitochondria and provides a simple, fluorescent-based method for distinguishing between healthy and apoptotic cells. In healthy cells, the negative charge established by the intact mitochondrial membrane potential facilitates the accumulation of JC-1 in the mitochondrial matrix. At high concentrations JC-1 forms aggregates and become red fluorescent. In apoptotic cells the mitochondrial potential collapses and JC-1 localizes to the cytosol in its monomeric green fluorescent form. A cell impermeable DNA stain (like DAPI) can be included to stain necrotic and late apoptotic cells. Jurkat cells were grown in RPMI+10% FCS to a density of 5.0×10^5 cells/ml and treated with 10 μM campthotecin (apoptosis inducing drug) for 5 hours. Cells were stained with 2.5 μg/ml JC-1 for 10 minutes at 37° C., washed with PBS, resuspended in PBS+1 μg/ml DAPI and analysed using the claimed apparatus.

[3] = test system: Jurkat cells; assay: Annexin V apoptosis assay (AF594-annexin V, DACM, SYTOX green) with the claimed apparatus; settings: 1 μM nocodazole, 16 hours; for annexin V positive cells (apoptotic cells): viable cells, nonviable cells gated out by SYTOX green
Method: Here the claimed apparatus is used in assaying fluorescently labelled annexin V to stain apoptotic and necrotic cells and SYTOX green to distinguish between the early and late apoptotic/necrotic cells. In addition DACM is used to stain all viable cells. Jurkat cells were cultivated at 37° C. in a humidified air atmosphere with 5% CO2 in RPMI (Invitrogen, Cat. No. 61870) supplemented with 10% heat-inactivated fetal bovine serum (Invitrogen, Cat. No. 10108-165). Cells were either treated with 1 μM nocodazole (Sigma, Cat. No. M1404) or left untreated. After 16 hours incubation (37° C., 5% CO2) cells were harvested in cold phosphate-buffered saline (PBS) and stained with AlexaFluor 594-labelled annexin V (Molecular probes, A-13203) according to the manufacturer's protocol. After annexin V staining all viable cells were co-stained using DACM (N-(7-dimethylamino-4-methyl-3-coumarinyl)-maleimide, WAKO Pure Chemical Industries, CAS no. 55145-14-7) and nonviable cells were stained with SYTOX green (Invitrogen, S7020). The stained cells were loaded into a NC-Slide. The NC-Slide was placed in the claimed apparatus and the cells were counted and investigated using the claimed apparatus and in-house developed software. The cells were also investigated using an Olympus IX50 fluorescent microscope. SYTOX green fluorescence was detected using a U-MWIBA3 (blue bandpass) filter cube (Olympus), the annexin V AF594 conjugate was detected using a U-MWG2 (green longpass) filter cube (Olympus) and DACM was detected using the U-MNUA2 (UV band pass) filter cube (Olympus).

[4] = test system: CHO cells; assay: Caspase based assay (SR-VAD-FMK poly-caspase FLICA, DACM, SYTOX green); settings: 1 μM nocodazole, 16 hours
From the text: Another caspase based apoptosis assay is the FLICAssay (Fluorochrome Inhibitor of Caspases Assay). This assay detects active caspases inside the cell using a caspase specific inhibitor sequence linked to a fluorescent probe. The non-cytotoxic caspase specific inhibitor is cell permeant and passes through the intact plasma membrane and covalently binds to the reactive cysteine residue on the large subunit of the active caspase heterodimer. […] Measuring the fluorescence thus gives a direct measure of the amount of active caspase in the whole living cell.
To quantify caspase activity by the FLICAssay, the cells to be investigated are incubated with the chosen caspase specific inhibitor sequence linked to a fluorescent probe. Cells are washed to remove unbound inhibitor and the fluorescence of the cells is determined using the claimed apparatus thereby making measurement of caspase activity on the single cell level possible. […]
CHO cells were cultivated in RPMI (Invitrogen, Cat. No. 61870) supplemented with 10% heat-inactivated fetal bovine serum (Invitrogen, Cat. No. 10108-165) at 37° C. in a humidified air atmosphere with 5% CO2. […] The NC-Slide was placed in the claimed apparatus and the cells were counted and investigated using the claimed apparatus and in-house developed software. […]

Row | SMILES | concentration of apoptotic cells (Annexin V conjugate binding cells) [1] | concentration of non-viable cells (PI) [1] | depolarized/apoptotic cells (JC-1) [2] | viability (DAPI positive cells counted) [2] | viability [3] | annexin V positive cells (apoptotic cells) [3] | annexin V positive cells (apoptotic cells) ([3]; listed as Nocodazole) | cells exhibiting strong red fluorescence (caspase activity, apoptotic cells) versus untreated cells [4]
1 | CC[C@@]1(O)C(=O)OCc2c1cc1n(c2=O)Cc2cc3ccccc3nc2-1 [Camptothecin] | 2.6×10^5 | 4.5×10^4 | 60% | approximately 96% |  |  |  | 
2 | COC(=O)Nc1nc2ccc(C(=O)c3cccs3)cc2[nH]1 [nocodazole] |  |  |  |  | almost not affected | more than 40% | ~40% | Substantially more

From US10254223B2, “Apparatus and methods for analysing fluorescent particles” (ChemoMetec A/S, priority 2008, dated 2019)
